# Reference: patent US20230173074A1, “BIOCOMPATIBLE MATERIAL AND METHODS FOR MAKING AND USING THE SAME” (PLERYON THERAPEUTICS (SHENZHEN) LIMITED, priority 2020, published 2023)
# {3'dT} = capped with 3'-dT; {C6} = six-carbon (C6) cap; m = 2'-O-methyl; r = 2'-OH (RNA); f = 2'-fluoro
# Assay: Release of aptamer from hydrogel (UV 260 nm)
# Conditions: PBS, 37° C.
# Source text: Hydrogel was formed similar to Example 5. An aptamer similar to Macugen of the following sequence of nucleotides and functional groups: CfGmGmAAUfCfAmGmUfGmAmAmUfGmCfUfUfAmUfAmCfAmUfCfCfGm3′(SEQ ID NO:1), with 5′ end caped with 6 carbon (C6) and 3′ end caped with a 3′-dT-S′ and Cy3 fluorescent dye, was used as an aptamer example. Gm or Am and Cf or Uf represent 2-methoxy and 2-fluoro variants of their respective purines and pyrimidines, and C, A, U and G code for cytidylic, adenylic, uridylic and guanylic acids. Hydrogels were formed similar to Example 5, except that the solution before gel formation was added to the API in powder form. The gel was incubated at 37° C. for 2 days before release experiment. For the release experiment, a small portion of gel (between […]) were transferred by a 3 mL disposable plastic pipettes into a 10 ml glass vial at ambient temperature, and the mass was measured for the final release calculation. The glass vial was slowly filled up with 5 ml of PBS solutions to minimize the disturbing of gel. The release was performed at 37° C. in triplicate. At each predetermined time point, 0.5 h, 1 h, 2 h, and 4 h in this case, the sample was gently shake for 10 s and sit at ambient temperature for 10 min before 1000 μl of releasing buffer were taken for UV quantification at 260 nm. The experiments were performed in triplicate.
substance,measurement,setting,value
"aptamer: modified RNA aptamer similar to Macugen (SEQ ID NO:1), 5′ C6 cap, 3′-dT and Cy3 dye (CGGAAUCAGUGAAUGCUUAUACAUCCG; sugars from the 5' end fmmrrffmmfmmmfmfffmfmfmfffm, 5' {C6}, 3' {3'dT}, backbone not given here; Cy3 fluorescent dye attached, further chemistry not fully specified)",duration of release from hydrogel,hydrogel Ap1 (FIG. 21),about 4 hours
same,duration of release from hydrogel,hydrogel Ap2 (FIG. 22),about 4 hours
